Experimental findings from patent US20210346354A1, “MACROPINOCYTOSIS IN CANCER” (Memorial Sloan-Kettering Cancer Center, priority 2015, published 2021) are described below.

One test deals with wild type MEFs. Kind of test: Lysosomal degradation of DQ-BSA in wild type MEFs. The class given is cell-based, mouse. Conditions: 250 nM torin 1; 6 h DQ-BSA uptake. As for the experimental part: (§1) For live imaging, medium was supplemented with 0.3 mg/ml DQ Green BSA. 1 h prior to imaging, 50 nM LysoTracker Red and 0.2 μg/ml Hoechst were added. Cells were imaged either immediately after addition of DQ-BSA and torin 1, or after 5-6 h incubation using a Zeiss LSM 5 LIVE.
To further investigate how Ras and mTORC1 signaling regulated lysosomal proteolysis of internalized proteins, the effects of mTORC1 inhibition and K-Ras activation were compared. […] Thus, K-Ras enhances a cell's ability to take up and degrade extracellular proteins. In contrast, whereas mTORC1 specifically restricts their lysosomal degradation.

Test [1] deals with K-Ras^G12D MEFs. Description: Lysosomal degradation of DQ-BSA (fluorescence dequenching) in K-Ras^G12D MEFs. The class given is cell-based, mouse. The procedure: as §1
To characterize how cells derive leucine from extracellular proteins, cellular albumin uptake was investigated using constitutively fluorescent albumin and intracellular albumin proteolysis using a self-quenched albumin that emits fluorescence upon degradation (DQ-BSA) (Reis et al., 1998). […] It was then determined whether lysosomal albumin degradation was required to support growth during leucine starvation. […] Ras GTPases can promote cellular uptake of macromolecules through macropinocytosis (Bar-Sagi and Feramisco, 1986). […] To investigate whether this endocytic pathway contributed to albumin-dependent growth, cells were treated with the Na^+/H^+ exchange inhibitor EIPA, which blocks macropinocytosis but not other endocytic pathways (West et al., 1989).
To distinguish these possibilities, it was first tested whether mTORC1 inhibition increased internalization of extracellular macromolecules. […] It was next examined whether mTORC1 inhibition affected lysosomal degradation of internalized proteins.

Test [2] deals with K-Ras^G12D MEFs. Kind of test: 14C-leucine labeling of proteins and lipids. To be noted: mean±STDEV (n=3); control cells 364±69. The class given is cell-based, mouse. As for the experimental part:
Cells were cultured in full medium containing 0.5 μCi (0.4%) L-[^14C(U)]-Leucine (Perkin Elmer) for 24 h. Total lipid and protein fractions were isolated essentially according to the Blight-Dyer method (Bligh and Dyer, 1959). Protein pellets were resolubilized in 6 M guanidine hydrochloride, then transferred to scintillation fluid. Organic phase-dissolved lipids were transferred to scintillation vials, and after solvent evaporation, resuspended in scintillation fluid. ^14C-leucine content of proteins and lipids was quantified by scintillation counting.

Test [3] deals with K-Ras mutant tumor cell lines (KRPC, MiaPaCa-2, A549). Description: Proliferation of K-Ras mutant tumor cell lines. It counts as cell-based. To be noted: 250 nM torin 1. The procedure:
Dashed lines indicate starting cell numbers. P-values were calculated using a two-tailed unpaired t-test. ***p<0.001. […] Under experimental conditions, cells have abundant glucose supplied in their medium and are thus unlikely to utilize leucine for lipid as opposed to protein synthesis during anabolic growth. Consistent with this, when cells were labeled with ^14C-leucine, the ratio of protein to lipid incorporation of label was: control cells 364±69, torin-1 treated cells 203±27, raptor-deficient cells 87±3. Data are represented as mean±STDEV (n=3).
Cell culture experiments were performed at 37° C. and 5% CO2 in DMEM/F12 with 10% dialyzed FBS (molecular weight cut-off 10,000; Gemini Biosystems), 100 U/mL penicillin, 100 μg/mL streptomycin, 5 mM glucose and 2 mM glutamine. For proliferation assays, MEFs were plated in complete medium, 5 h later briefly rinsed and then cultured in starvation medium as indicated. For EAA titration experiments, EAAs were supplemented at indicated percentages of 1×MEM amino acid solution (M5550, Sigma). Cancer cell lines were cultured in complete medium for 1 day prior to starvation. Numbers of adherent cells, which are >95% viable as assessed by Trypan Blue exclusion were determined using a Multisizer 4 Coulter Counter (Beckman). […]

SMILES strings stand for the structures.

Consider `CCC(=O)N1CCN(c2ccc(-n3c(=O)ccc4cnc5ccc(-c6cnc7ccccc7c6)cc5c43)cc2C(F)(F)F)CC1` [torin 1], for which, in the test on wild type MEFs, the DQ-BSA fluorescence entry is recorded as “significant increase”. In the test on K-Ras^G12D MEFs [1] (250 nM torin 1, 6 h DQ-BSA uptake, versus either manipulation alone), the “DQ-BSA proteolysis, torin 1 combined with constitutive K-Ras activation” value is reported as “almost four times more than either manipulation alone”. Also, in the test with K-Ras^G12D MEFs [1] (250 nM torin 1, followed over time), the “fluorescence dequenching of DQ-BSA” value is given as “dramatic increase”. Also, in the test on K-Ras^G12D MEFs [1] (pre-treating with 250 nM torin 1 for 6 h or 16 h), the “rate of DQ-BSA degradation after torin 1 pre-treatment” value is “did not increase the rate of DQ-BSA degradation”. In the test on K-Ras^G12D MEFs [2], the “ratio of protein to lipid incorporation of 14C-leucine label” value is recorded as 203±27. Further, the cell proliferation entry is listed as “strongly decreased their proliferation” in test [3] (leucine-containing medium +3% albumin, day 3) and “induced several carcinoma cell lines harboring activating Ras mutations to proliferate” in test [3] (leucine-free medium +3% albumin, day 4).
